Laboratory results published in ChEMBL document CHEMBL4825721, “Dual Glycolate Oxidase/Lactate Dehydrogenase A Inhibitors for Primary Hyperoxaluria” (ACS Med Chem Lett, 2021).
Calls of active or inactive are those of the source. The calls are words filed in the database; no cut-off is given here.

What was measured:
[1] = Drug distribution in C57BL/6N mouse liver at 100 mg/kg, po measured after 6 hrs by LC-MS/MS analysis; assay type: ADME, organism-based; conditions: in vivo
[2] = biological target: T1, 2-Hydroxyacid oxidase 1 (Homo sapiens, UniProt Q9UJM8); assay: Inhibition of recombinant human GOX expressed in Escherichia coli C41 (DE3) using glycolate as substrate preincubated for 10 mins followed by substrate addition measured by Amplex red and horseradish peroxidase based fluorescence assay
T1 sequence (Q9UJM8 whole entry): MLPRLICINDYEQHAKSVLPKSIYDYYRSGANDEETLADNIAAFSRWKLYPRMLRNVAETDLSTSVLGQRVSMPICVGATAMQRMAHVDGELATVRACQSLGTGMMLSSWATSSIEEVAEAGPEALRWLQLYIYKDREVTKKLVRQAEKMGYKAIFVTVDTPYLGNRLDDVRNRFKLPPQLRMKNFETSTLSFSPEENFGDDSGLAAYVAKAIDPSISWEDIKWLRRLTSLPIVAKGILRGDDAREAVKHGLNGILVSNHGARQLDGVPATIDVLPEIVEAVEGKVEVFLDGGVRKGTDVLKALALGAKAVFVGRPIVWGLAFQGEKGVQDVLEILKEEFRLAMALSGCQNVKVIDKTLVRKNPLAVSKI

[3] = biological target: T2, 2-Hydroxyacid oxidase 1 (Mus musculus, UniProt Q9WU19); assay: Inhibition of recombinant mouse GOX expressed in Escherichia coli C41 (DE3) using glycolate as substrate preincubated for 10 mins followed by substrate addition measured by Amplex red and horseradish peroxidase based fluorescence assay
T2 sequence (Q9WU19 whole entry): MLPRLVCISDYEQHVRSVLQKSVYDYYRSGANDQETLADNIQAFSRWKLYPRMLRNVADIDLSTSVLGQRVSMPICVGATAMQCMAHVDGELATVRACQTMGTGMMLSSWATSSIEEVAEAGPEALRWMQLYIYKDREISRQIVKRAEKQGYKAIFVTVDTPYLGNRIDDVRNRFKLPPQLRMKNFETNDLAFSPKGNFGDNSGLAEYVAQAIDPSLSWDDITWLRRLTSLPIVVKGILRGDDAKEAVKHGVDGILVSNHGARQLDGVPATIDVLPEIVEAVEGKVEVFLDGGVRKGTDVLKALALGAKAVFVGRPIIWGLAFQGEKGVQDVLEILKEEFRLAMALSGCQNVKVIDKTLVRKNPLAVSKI

[4] = biological target: T3, L-lactate dehydrogenase A chain (Mus musculus, UniProt P06151); assay: Inhibition of LDHA in wild type CD1 mouse primary hepatocyte assessed as inhibition of lactate production using pyruvate as substrate measured after 30 mins by LC-MS analysis; assay type: tissue-based
[5] = biological target: T3, L-lactate dehydrogenase A chain; assay: Inhibition of recombinant mouse LDHA expressed in BL21 gold (DE3) using sodium pyruvate as substrate preincubated for 10 mins followed by sodium pyruvate and […] addition
[6] = biological target: L-lactate dehydrogenase A chain (Homo sapiens, UniProt P00338); assay: Inhibition of recombinant human LDHA expressed in BL21 gold (DE3) using sodium pyruvate as substrate preincubated for 10 mins followed by sodium pyruvate and […] addition
[7] = Inhibition of GOX/LDHA in Ag xt knockdown PH1 mouse primary hepatocyte assessed as reduction of oxalate production in the presence of glycolate measured after 2 hrs by ICMS analysis; assay type: tissue-based
[8] = system: Mus musculus; assay: In vivo inhibition of GOX/LDHA in C57BL/6N mouse assessed as increase in plasma glycolate levels at 100 mg/kg, po measured after 6 hrs; assay type: functional, organism-based
[9] = Drug distribution in C57BL/6N mouse liver at 100 mg/kg, po measured after 2 hrs by LC-MS/MS analysis; assay type: ADME, organism-based; conditions: in vivo
[10] = In vivo inhibition of GOX/LDHA in C57BL/6N mouse assessed as increase in plasma glycolate levels at 100 mg/kg, po measured after 2 hrs; assay type: functional
[11] = biological target: T2, 2-Hydroxyacid oxidase 1; assay: Non competitive inhibition of mouse glycolate oxidase in hyperoxaluric-Agxt knockdown mouse primary hepatocyte assessed as reduction in oxalate production in the presence of glycolate measured upto 72 hrs by enzymatic assay; assay type: tissue-based
[12] = biological target: T4, Hydroxyacid oxidase 1 (Sus scrofa, UniProt I3LVF1); assay: Inhibition of pig HAO1 in presence of NADH by spectrometry analysis
T4 sequence (I3LVF1 whole entry): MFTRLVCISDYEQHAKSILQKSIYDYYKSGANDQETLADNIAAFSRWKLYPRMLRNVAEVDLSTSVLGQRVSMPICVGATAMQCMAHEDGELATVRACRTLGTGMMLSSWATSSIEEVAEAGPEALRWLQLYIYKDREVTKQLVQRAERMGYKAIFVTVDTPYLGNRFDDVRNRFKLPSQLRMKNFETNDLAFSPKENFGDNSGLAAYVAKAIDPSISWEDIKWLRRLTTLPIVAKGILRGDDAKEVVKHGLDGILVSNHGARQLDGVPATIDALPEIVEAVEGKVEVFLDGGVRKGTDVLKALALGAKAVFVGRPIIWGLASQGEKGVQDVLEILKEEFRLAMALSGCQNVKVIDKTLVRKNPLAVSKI

Row | SMILES | IC50 [2] [nM] | IC50 [4] [nM] | IC50 [5] [nM] | IC50 [6] [nM] | IC50 [7] [nM] | also measured
1 | NS(=O)(=O)c1ccc(Cc2c(-c3cccc(Sc4[nH]nnc4C(=O)O)c3)nn(-c3nc(C(=O)O)cs3)c2CC2CC2)cc1F | 4.7 | 136 | 0.7 | 0.5 | 88 | Drug uptake [1]: Not Active; IC50 [3]: 7.7 nM; inhibition [8]: inactive
2 | O=C(O)c1[nH]nnc1Sc1ccc(Cl)cc1 | 6.7 | – | – | – | 149 | IC50 [3]: 14.6 nM; Drug uptake [9]: Active; fold change (FC) [10]: 4
3 | NS(=O)(=O)c1ccc(Cc2c(-c3ccc(F)c(-c4ccc(Sc5nn[nH]c5C(=O)O)cc4)c3)nn(-c3nc(C(=O)O)cs3)c2CC2CC2)cc1F | 1.1 | 230 | 0.2 | 0.3 | – | –
4 | NS(=O)(=O)c1ccc(Cc2c(-c3cccc(-c4ccccc4)c3)nn(-c3nc(C(=O)O)cs3)c2CC2CC2)cc1 | – | – | 0.1 | – | 181 | –
5 | O=C(O)c1nnsc1Sc1ccc(Cl)cc1 | – | – | – | – | – | Ki [11]: 4500 nM
6 | NS(=O)(=O)c1ccc(Cc2c(-c3ccc(F)c(-c4cccc(Oc5[nH]nnc5C(=O)O)c4)c3)nn(-c3nc(C(=O)O)cs3)c2CC2CC2)cc1F | 0.9 | 143 | 0.2 | 0.1 | – | Drug uptake [1]: Not Active; inhibition [8]: inactive
7 | NS(=O)(=O)c1ccc(Cc2c(-c3ccc(F)c(Oc4[nH]nnc4C(=O)O)c3)nn(-c3nc(C(=O)O)cs3)c2CC2CC2)cc1F | 11 | 732 | 0.3 | 0.4 | – | –
8 | O=C1NC(=O)C(c2ccc(-c3ccc(Br)cc3)cc2)=C1O | – | – | – | – | – | IC50 [12]: 87 nM
9 | NS(=O)(=O)c1ccc(Cc2c(-c3ccc(F)c(-c4ccc(Oc5nn[nH]c5C(=O)O)cc4)c3)nn(-c3nc(C(=O)O)cs3)c2CC2CC2)cc1F | 1.2 | 198 | 0.4 | 0.07 | – | –
10 | NS(=O)(=O)c1ccc(Cc2c(-c3ccc(F)c(-c4ccc(-c5nn[nH]c5C(=O)O)cc4)c3)nn(-c3nc(C(=O)O)cs3)c2CC2CC2)cc1F | 3.6 | 170 | 0.4 | 0.3 | – | –
